ChEMBL document CHEMBL1151474, “Replication of Colonic Crohn's Disease Mucosal Escherichia coli Isolates within Macrophages and Their Susceptibility to Antibiotics” (Antimicrob Agents Chemother, 2008)
In brackets after ≈: the same amount, converted by molar mass. Activity calls are given as the source filed them. The rule behind the calls is not given here.

How the values were obtained:
Escherichia coli [1] = assay: Antibacterial activity against Escherichia coli isolate HM154 isolated from colonic mucosal biopsies of patient with Crohn's disease after 24 hrs by Etest antibiotic concentration gradient method; assay type: functional; details: isolate HM154, 24 h
Escherichia coli [2] = assay: Antibacterial activity against Escherichia coli isolate HM580 isolated from colonic mucosal biopsies of patient with Crohn's disease after 24 hrs by Etest antibiotic concentration gradient method; assay type: functional; details: isolate HM580, 24 h
Escherichia coli [3] = assay: Antibacterial activity against Escherichia coli isolate HM605 isolated from colonic mucosal biopsies of patient with Crohn's disease
Escherichia coli [4] = assay: Antibacterial activity against extracellular Escherichia coli isolate HM605 isolated from colonic mucosal biopsies of patient with Crohn's disease at 0.01 to 10 ug/ml after 3 hrs; assay type: functional, organism-based
Escherichia coli [5] = assay: Antibacterial activity against gentamicin-treated internalized Escherichia coli isolate HM605 in mouse J774A1 cells isolated from colonic mucosal biopsies of patient with Crohn's disease assessed as intracellular killing of bacteria at 10% compound Cmax after 3 hrs; assay type: functional, J774.A1
Escherichia coli [6] = assay: Antibacterial activity against gentamicin-treated internalized Escherichia coli isolate LF82 in mouse J774A1 cells isolated from chronic ileal lesions of patient with Crohn's disease assessed as intracellular killing of bacteria at 10% compound Cmax after 3 hrs; assay type: functional, J774.A1
Escherichia coli [7] = assay: Antibacterial activity against gentamicin-treated internalized Escherichia coli isolate HM580 in mouse J774A1 cells isolated from colonic mucosal biopsies of patient with Crohn's disease assessed as intracellular killing of bacteria at 10% compound Cmax after 3 hrs; assay type: functional, J774.A1
Escherichia coli [8] = assay: Antibacterial activity against gentamicin-treated internalized Escherichia coli isolate HM615 in mouse J774A1 cells isolated from colonic mucosal biopsies of patient with Crohn's disease assessed as intracellular killing of bacteria at 10% compound Cmax after 3 hrs; assay type: functional, J774.A1
Escherichia coli [9] = assay: Antibacterial activity against Escherichia coli isolate HM615 isolated from colonic mucosal biopsies of patient with Crohn's disease after 24 hrs by Etest antibiotic concentration gradient method; assay type: functional; details: isolate HM615, 24 h
Escherichia coli [10] = assay: Antibacterial activity Escherichia coli isolate HM413 isolated from ileo-colonic mucosal biopsies of patient with Crohn's disease after 24 hrs by Etest antibiotic concentration gradient method; assay type: functional; details: isolate HM413, 24 h
Escherichia coli [11] = assay: Antibacterial activity Escherichia coli isolate HM419 isolated from ileo-colonic mucosal biopsies of patient with Crohn's disease after 24 hrs by Etest antibiotic concentration gradient method; assay type: functional; details: isolate HM419, 24 h
Escherichia coli [12] = assay: Antibacterial activity against Escherichia coli isolate HM95 isolated from ileal mucosal biopsies of patient with Crohn's disease after 24 hrs by Etest antibiotic concentration gradient method; assay type: functional; details: isolate HM95, 24 h
Escherichia coli [13] = assay: Antibacterial activity against mucosa-associated Escherichia coli isolate HM428 isolated from patient with irritable bowel syndrome or sporadic polyps after 24 hrs by Etest antibiotic concentration gradient method; assay type: functional; details: isolate HM428, 24 h
Escherichia coli [14] = assay: Antibacterial activity against mucosa-associated Escherichia coli isolate HM454 isolated from patient with irritable bowel syndrome or sporadic polyps after 24 hrs by Etest antibiotic concentration gradient method; assay type: functional; details: isolate HM454, 24 h
Escherichia coli [15] = assay: Antibacterial activity against mucosa-associated Escherichia coli isolate HM456 isolated from patient with irritable bowel syndrome or sporadic polyps after 24 hrs by Etest antibiotic concentration gradient method; assay type: functional; details: isolate HM456, 24 h
J774.A1 = assay: Cytotoxicity against mouse J774A1 cells assessed as release of adenylate kinase at 100 ug/ml after 3 hrs […] relative to control; assay type: cell-based; details: j774.a1, 3 h
Escherichia coli [16] = assay: Antibacterial activity against Escherichia coli isolate LF82 isolated from colonic mucosal biopsies of patient with Crohn's disease after 24 hrs by Etest antibiotic concentration gradient method; details: isolate LF82, 24 h
Escherichia coli [17] = assay: Antibacterial activity against mucosa-associated Escherichia coli isolate HM463 isolated from patient with irritable bowel syndrome or sporadic polyps after 24 hrs by Etest antibiotic concentration gradient method; details: isolate HM463, 24 h
Escherichia coli [18] = assay: Antibacterial activity against mucosa-associated Escherichia coli isolate HM484 isolated from patient with irritable bowel syndrome or sporadic polyps after 24 hrs by Etest antibiotic concentration gradient method; details: isolate HM484, 24 h
Escherichia coli [19] = assay: Antibacterial activity against mucosa-associated Escherichia coli isolate HM488 isolated from patient with irritable bowel syndrome or sporadic polyps after 24 hrs by Etest antibiotic concentration gradient method; details: isolate HM488, 24 h

O=C(O)c1cn(C2CC2)c2cc(N3CCNCC3)c(F)cc2c1=O [CIPROFLOXACIN]
MIC (Escherichia coli [1]): ≤ 1 µg/mL | MIC (Escherichia coli [2]): ≤ 1 µg/mL | MBC (Escherichia coli [3]): 0.3 µg/mL (≈ 0.905 µM) | Activity (Escherichia coli [4]): Active | Activity (Escherichia coli [5]): 86% | Activity (Escherichia coli [6]): 87.6% | Activity (Escherichia coli [7]): 90.4% | Activity (Escherichia coli [8]): 83.8% | MIC (Escherichia coli [9]): ≤ 1 µg/mL | MIC (Escherichia coli [10]): ≤ 1 µg/mL | MIC (Escherichia coli [11]): ≤ 1 µg/mL | MIC (Escherichia coli [12]): ≤ 1 µg/mL | MIC (Escherichia coli [13]): ≤ 1 µg/mL | MIC (Escherichia coli [14]): ≤ 1 µg/mL | MIC (Escherichia coli [15]): ≤ 1 µg/mL | Activity (J774.A1): 90% | MIC (Escherichia coli [16]): ≤ 1 µg/mL | MIC (Escherichia coli [17]): ≤ 1 µg/mL | MIC (Escherichia coli [18]): ≤ 1 µg/mL | MIC (Escherichia coli [19]): ≤ 1 µg/mL
